Data set [1] relates to patients with chronic lymphocytic leukaemia, small lymphocytic lymphoma and indolent non-Hodgkin’s lymphomas. As to conditions: ref US Food and Drug Administration, 2016; cited from earlier work.
Data set [2] deals with multidrug and toxin extrusion protein 2K (MATE2-K). As to conditions: in vitro; no reference given; cited from earlier work.
Data set [3] concerns patients with advanced malignancies. As to the kind of experiment: Dose escalation. The class given is in vivo, human.
The test system of data set [4] is class I PI3K (PI3K-δ and PI3K-α isoforms). As to conditions: pan-class I PI3K inhibitor; ref Liu et al, 2013; Haike et al, 2014; cited from earlier work.
A short description of data set [5]: Urinary excretion up to 25 h after start of copanlisib infusion. As to conditions: 25 h urine collection interval; expansion cohort. It is filed as in vivo, human.
Another data set has as its system PIK3CA-mutated cells. As to conditions: preclinical studies; ref Liu et al, 2013; cited from earlier work.
The nature of data set [6]: Plasma pharmacokinetics on cycle 1, day 1. The class given is in vivo, human.
Data set [7] has as its system advanced or refractory solid tumours. The data set is described as follows: Tumour response by RECIST version 1.1. It is filed as in vivo, human.
The test system of data set [8] is patients with advanced malignancies. The data set is described as follows: Adverse events. The class given is in vivo, human.

Each structure is given as a SMILES string. “Also recorded” adds a separate entry of the source.

As for `CC[C@H](Nc1ncnc2[nH]cnc12)c1nc2cccc(F)c2c(=O)n1-c1ccccc1` [idelalisib], the “rate of AEs in combination with other anti-cancer therapies” value in [1] is listed as “increased rate of AEs, including deaths”.
Turning to `COc1c(OCCCN2CCOCC2)ccc2c1N=C(NC(=O)c1cnc(N)nc1)N1CCN=C21` [copanlisib], the “inhibition of MATE2-K” value in data set [2] was “strong inhibitor”. Besides, the “RP2D of copanlisib in combination with CisGem” value in data set [3] (cisplatin 25 mg m^−2 + gemcitabine 1000 mg m^−2, days 1 and 8 of a 21-day cycle) was determined as 0.8 mg/kg. Further, the “RP2D of copanlisib in combination with gemcitabine” value in [3] (gemcitabine 1000 mg m^−2, days 1, 8 and 15 of a 28-day cycle) was determined as 0.8 mg/kg. In data set [4], the PI3K isoform selectivity result is “predominant activity against PI3K-δ and PI3K-α isoforms”. In addition, the “amount excreted into urine, % of dose” value in data set [5] was “about 4.9%”. In addition, the “anti-tumour activity in PIK3CA-mutated cells” value with PIK3CA-mutated cells was “anti-tumour activity”. Besides, in [6] (dose range 0.6–0.8 mg kg^−1), the “dose dependence of plasma exposure (Cmax and AUC)” value is reported as “nearly dose-proportional increase”. In addition, the half-life in data set [6] (human, plasma, intravenous) lay in the range of 25 to 26 h. The “effect of co-administration of CisGem on plasma exposure (Cmax and AUC(0–25))” value in [6] (in vivo) is listed as “No substantial differences; also recorded: no influence”. In data set [7] (4 out of 11 patients), the “response rate in patients with BTC who had not received prior anti-cancer therapy” value is recorded as 36%. In data set [7] (12 patients), the “response in patients with BTC who had received prior CisGem or gemcitabine-containing chemotherapy” value was “No response”. The “objective response rate overall” value in [7] (all 50 patients, all cohorts) stood at 10%. Besides, the “stable disease, patients” value in [7] (all 50 patients, 19 patients) turned out to be 38%. Also, in data set [7] (all 50 patients, four patients), the “partial response, patients” value is listed as 8%. Besides, in data set [7] (all 50 patients, one patient), the “complete response, patients” value is 2%. Moreover, in data set [8] (all 50 patients), the “TEAE any grade: decreased platelet count” value is recorded as 80%, the “TEAE any grade: fatigue” value came out at 76%, the “TEAE any grade: hyperglycaemia” value was determined as 80% and the “TEAE any grade: nausea” value turned out to be 86%. In data set [8] (all 50 patients), the “copanlisib-related TEAE: anaemia” value is 42%, the “copanlisib-related TEAE: anorexia” value came out at 56%, the “copanlisib-related TEAE: decreased neutrophil count” value was 62% and the “copanlisib-related TEAE: decreased platelet count” value came out at 58%. Also, in data set [8] (all 50 patients), the “copanlisib-related TEAE: fatigue” value amounted to 66%, the “copanlisib-related TEAE: hyperglycaemia” value turned out to be 76%, the “copanlisib-related TEAE: hypertension” value is 46% and the “copanlisib-related TEAE: nausea” value was 74%. Besides, in [8] (all 50 patients), the “copanlisib-related TEAE: vomiting” value is listed as 36%, the “deaths considered related to study treatment” value is on record as “No deaths”, the “grade ⩾3 TEAE: decreased neutrophil count” value turned out to be 62% and the “grade ⩾3 TEAE: decreased platelet count” value was found to be 38%. Also, in [8] (all 50 patients), the “grade ⩾3 TEAE: fatigue” value was 22%, the “grade ⩾3 TEAE: hyperglycaemia” value was 24%, the “grade ⩾3 TEAE: hypertension” value was found to be 42% and the “grade ⩾3 copanlisib-related AE: decreased neutrophil count” value turned out to be 48%. Also, in data set [8] (all 50 patients), the “grade ⩾3 copanlisib-related AE: decreased platelet count” value is listed as 28%, the “grade ⩾3 copanlisib-related AE: hypertension” value was determined as 38% and the “patients who received insulin as remedial drug therapy” value amounted to 14 patients. Also, in data set [8] (all 50 patients, 26 patients), the “dose modification because of copanlisib-related TEAEs” value amounted to 52% and the “serious AE” value is 52%. In addition, the “dose modifications (interruption or dose reduction) for copanlisib, gemcitabine or cisplatin due to TEAEs” value in data set [8] (all 50 patients, 45 patients) turned out to be 90%. In data set [8] (all 50 patients, eleven patients), the “at least one serious copanlisib-related AE” value turned out to be 22%. For the same molecule, the “serious AE: abdominal pain” value in [8] (all 50 patients, four patients) worked out at 8%. Also, in data set [8] (all 50 patients, nine patients), the “permanently discontinued copanlisib because of TEAEs” value worked out at 18%. Moreover, the “serious copanlisib-related AE: grade 4 sinus tachycardia and grade 4 sepsis” value in data set [8] (all 50 patients, one patient) was found to be 2%. Moreover, in data set [8] (all 50 patients, six patients), the “serious AE: lung infection” value is 12%. In addition, the “TEAE of grade 3 hyperglycaemia” value in [8] (all 50 patients, ten patients) came out at 20%. For the same molecule, the “serious AE: dehydration” value in [8] (all 50 patients, three patients) was 6%. In addition, in data set [8] (all 50 patients, two patients), the “TEAE of grade 4 hyperglycaemia” value is 4% and the “grade 4 serious TEAE: sepsis” value is 4%. In data set [8] (all patients), the “patients with infusion-related increases in plasma glucose and plasma insulin” value is reported as roughly 80%. In [8] (patients treated with copanlisib plus cisplatin, data not shown), the “signs of increased nephrotoxicity caused by intrarenal accumulation of cisplatin” value is reported as “no signs of increased nephrotoxicity”.
Consider `COc1c(OCCCN2CCOCC2=O)ccc2c3n(c(=NC(=O)c4cnc(N)nc4)nc12)CCN3` [M-1], for which the “amount excreted into urine, % of dose” value in [5] was roughly 0.9%. Moreover, the “median tmax of M-1, range across cohorts” value in data set [6] (copanlisib 0.8 mg kg^−1, cycle 1, day 1) lay in the range of 2 to 4 h. Besides, in data set [6] (in vivo), the “effect of co-administration of CisGem on plasma exposure (Cmax and AUC(0–25))” value is recorded as “no influence”; the “estimated geometric mean terminal half-life of M-1 versus copanlisib” value is “comparable with that of copanlisib”.
For `O=c1ccn([C@@H]2O[C@H](CO)[C@@H](O)C2(F)F)c(=O)[nH]1` [dFdU, 2’,2’-difluorodeoxyuridine], the “influence of co-administration with copanlisib on PK” value in data set [6] (in vivo) is “not influenced”.
Take `Nc1ccn([C@@H]2O[C@H](CO)[C@@H](O)C2(F)F)c(=O)n1` [gemcitabine, reference compound]: the “influence of co-administration with copanlisib on PK” value in data set [6] (in vivo) is “not influenced”.

One may read the half-life as how long it takes for the measured level to halve. High values mean slow loss, low ones fast loss.

The values are drawn from article PMC5830590 (British Journal of Cancer, 2018).
